Assays:
[1] = Adverse effects / gross behavior on dosing; format: in vivo, rat
Procedure: The doses for the acute and chronic studies were selected on the basis of prior assessment of the acute effects on the test compounds on the gross behavior in normal rats. Briefly, the rats were weighed and grouped into cages, dosed with the test compound, and observed continuously for changes in behavior. […] Pinna and corneal reflexes were tested by using a piece of natural hair from a brush that is attached to a glass rod. The righting reflexes were tested by placing the rat flat on its back, and recording the time it takes for the animal to right itself onto all four legs. The posture and gait were assessed by placing the rat on the floor.
The selection of doses was similar to that of Example 12C.

[2] = Metabolism to Formula II / plasma levels of Formula II after oral administration; format: in vivo
cold allodynia in rats = assay: Cold allodynia in vivo assay (chronic constriction injury), chronic studies; design: species or system rat; conditions: for anti-allodynia after chronic dosing: subcutaneous, 5 days of twice daily dosing
Procedure: This assay determines the effectiveness of compounds in relieving one of the symptoms of neuropathic pain produced by unilateral mononeuropathy, namely cold allodynia. Unilateral mononeuropathy was produced in rats using the Chronic Constriction Injury model performed essentially as described by Bennet and Xie, Pain, (1988) 33:87-107. Briefly, the rats were anesthetized with an intraperitoneal dose of pentobarbital sodium (65 mg/kg) with additional doses of anesthetic given as needed. The lateral aspect of each rat's hind limb was shaved and scrubbed with Novasan. Using aseptic technique, an incision was made on the lateral aspect of the hind limb at the mid-thigh level. The biceps femoris was bluntly dissected to expose the sciatic nerve. On the right hind limb of each rat, four loosely tied ligatures were made around the sciatic nerve approximately 1-2 millimeters apart. On the left side of each rat, an identical dissection was performed except that the sciatic nerve was not ligated. The muscle was closed with a continuous suture pattern, and the skin was closed with wound clips. Each rat was placed individually into a plexiglass chamber with a metal plate 6 cm from the bottom. This chamber was filled with ice water to a depth of 2.5 cm above the metal plate, with the temperature of the bath maintained at 0° C. throughout the experiment. A timer was started, and the rat's response latency was measured to the nearest tenth of a second. A "response" was defined as a rapid withdrawal of the right ligated hindpaw completely out of the water while the animal was stationary and not pivoting. An exaggerated limp while the animal was walking was not scored as a response. Maximum immersion time was 20 seconds with a 20 minute interval between trials. The screening criteria were 1) the average of two trials was less than or equal to 13 seconds, and 2) there was consistency across the two trial scores. Animals were screened for hypersensitivity to cold on post-surgery days 4 through 10, and selected for inclusion in dose-response studies based on the criteria described above. The pre-dose screening values were used as the animal's baseline cold allodynia scores. For chronic studies, the animals received subcutaneous or oral injections twice daily for 4 days and once on day 5. The animals were tested for allodynia on day 1 at 1, 3 and 5 hours following the 8 am dose, and at 5 hours following the 8 am dose on days 3 and 5. Two days later, the animals were tested for cold allodynia to assess whether there was a wash-out of the drug being tested. Following this screening for cold allodynia, the animals in two of the three chronic studies received either subcutaneous or oral injections of the drug at a dose previously shown to produce significant anti-allodynic effects acutely. […]

[3] = test system: mechanical allodynia in rats; assay: Mechanical allodynia in vivo assay (spinal nerve ligation); design: species or system rat
Procedure: This assay determines the effectiveness of compounds in relieving one of the symptoms of neuropathic pain produced by spinal nerve ligation, namely mechanical allodynia. The surgical procedure was performed essentially as described by Kim and Chung, Pain, (1992) 50:355-363. Briefly, the rats were anesthetized with an intraperitoneal dose of pentobarbital sodium (65 mg/kg) with additional doses of anesthetic given as needed. Each animal was then placed in a prone position, a 3 cm lateral incision was made, and the left paraspinal muscles separated from the spinous process at the L4 -S2 level. The L6 transverse process was then removed in order to visually identify the L4 -L6 spinal nerves. The L5 and L6 spinal nerves were then individually isolated and tightly ligated with silk thread. The wound was then closed in layers by silk sutures. Seven to 28 days post-surgery, a calibrated series of eight von Frey filaments were used to assess mechanical allodynia. Animals were housed individually in plexiglass cages with a wire mesh floor. Filaments of increasing stiffness were applied perpendicular to the midplantar surface in the sciatic nerve distribution areas of the left hindpaw and were slowly depressed (4-6 seconds) until bending occurred. The filament application order and number of trials were determined by the up-down method of Dixon (Chaplan, et al., J. Neurosci. Methods, (1994) 53:55-63). Flinching and licking of the paw and paw withdrawal on the ligated side were all considered positive responses. The 50% paw withdrawal threshold (g) was then calculated and compared to control. The doses for the acute and chronic studies were selected on the basis of prior assessment of the acute effects on the test compounds on the gross behavior in normal rats. Briefly, the rats were weighed and grouped into cages, dosed with the test compound, and observed continuously for changes in behavior. […] Pinna and corneal reflexes were tested by using a piece of natural hair from a brush that is attached to a glass rod. The righting reflexes were tested by placing the rat flat on its back, and recording the time it takes for the animal to right itself onto all four legs. The posture and gait were assessed by placing the rat on the floor.

[4] = subcutaneous, cold allodynia acute study
[5] = mechanical allodynia, subcutaneous

Structure (SMILES) | doses with adverse side effects / behavioral problems [1, 4] | adverse side effects observed ([1]; subcutaneous, cold allodynia acute study, doses higher than 60 mg/kg) | metabolism to the compound of Formula II ([2]; oral, mammal) | anti-allodynia after chronic dosing (cold allodynia in rats) | ED50 ([3]; Rattus norvegicus, sc, mechanical allodynia, subcutaneous) [mg/kg] | EDmax [3, 5] [%] | maximal analgesic activity (Emax) [3, 5] [%] | potency (ED50) comparison ([3]; mechanical allodynia, subcutaneous, in words) | doses with adverse side effects ([1]; oral administration, mechanical allodynia study) [mg/kg] | safety profile ([1]; oral administration, vs (S)-enantiomer) | safety profile ([1]; subcutaneous, cold allodynia acute study, vs racemate, (S)-enantiomer, or II) | plasma level of Formula II after oral (R)-enantiomer of Formula I, less than after acute administration of Formula II itself ([2]; oral administration, plasma) | anti-allodynic effect after chronic oral dosing (cold allodynia in rats; oral, chronic, (R)-enantiomer 10 and 20 mg/kg, sub-threshold) | maximal analgesic activity, comparison ([3]; mechanical allodynia, subcutaneous, vs racemates of I, II and III) | analgesia against mechanical allodynia ([3]; oral administration)
CCNC(C)COc1c(C)cccc1C (racemic) [Formula I racemate, [2-(2,6-dimethylphenoxy)-1-methylethyl]-ethylamine] | higher than 60 mg/kg | convulsions and immobility | metabolized to some extent to the compound of Formula II | significant levels of anti-allodynia | 12.6 | 66 | 66 | considerably more potent (ED50) than II or III |  |  |  |  |  |  | 
CCN[C@H](C)COc1c(C)cccc1C [Formula I (R)-, (R)-[2-(2,6-dimethylphenoxy)-1-methylethyl]-ethylamine] | ≥ 300 mg/kg |  |  | significant levels of anti-allodynia |  |  | 98 |  | ≥ 300 | cleaner safety profile | cleaner safety profile | 5-10 fold less | as robust an anti-allodynic effect as an acute dose of compound I that is 10 fold higher | significantly greater maximal analgesic activity | did not produce analgesia

Source: patent US5688830A, “Treatment of neuropathic pain” (Syntex (U.S.A.) Inc., priority 1997, dated 1997)
